In assay [1] the target is T1, AR (AR-full length) in LNCaP cells (Homo sapiens, UniProt P10275, T878A).
T1 construct: the prostate cancer cell line LNCaP (expressing AR-full length); endogenous in cells; host or cells: LNCaP
Nature of the assay: LNCaP Androgen Receptor Imaging Assay (immunofluorescence of endogenous nuclear AR). It counts as cell-based. The settings on record: 24 h incubation; for DC50: concentration giving 50% of maximum degradation of AR per curve fit, single experiment or average of two or more; for Dmax: LNCaP; for Dmax / LNCaP AR Degradation Dmax: maximum degradation observed, normalized as % of positive control (prior art AR PROTAC at 3 μM). Summed up: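 LNCaP cells (12,000/well) received a 12-point compound dose series (0.3% DMSO) for 24 h at 37° C., then were PFA-fixed and stained for AR (AR441) and nuclei (DRAQ5). Nuclear AR was quantified by imaging, normalized to a 3 μM AR PROTAC control; DC50 and Dmax came from Hill/bell curve fits.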

Assay [2] has as its target T2, AR (L702H) in LNCaP cells (Homo sapiens, UniProt P10275, L702H/T878A).
T2 construct: engineered to introduce the mutation L702H into the AR gene using CRISPR/Cas9; endogenous in cells; host or cells: LNCaP cells edited by CRISPR/Cas9 at the AR gene
Description: LNCaP Androgen Receptor L702H Imaging Assay (LNCaP cells engineered by CRISPR/Cas9). It counts as cell-based. As to conditions: LNCaP cells with AR L702H mutation, 24 h incubation; for DC50: concentration giving 50% of maximum degradation of AR (L702H) per curve fit; for Dmax: LNCaP. A digest of the protocol: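 CRISPR-engineered LNCaP cells carrying AR L702H were treated 24 h at 37 °C with a 12-point compound dose response (0.3% DMSO), then fixed and immunostained for AR with DRAQ5 nuclear counterstain. Nuclear AR was quantified by imaging, normalized to positive control; DC50 and Dmax came from Hill or bell-shaped fits.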

[3] abbreviates: maximum degradation observed, normalized as % of positive control.

Each structure is given as a SMILES string.

T1 sequence (P10275 whole entry T878A): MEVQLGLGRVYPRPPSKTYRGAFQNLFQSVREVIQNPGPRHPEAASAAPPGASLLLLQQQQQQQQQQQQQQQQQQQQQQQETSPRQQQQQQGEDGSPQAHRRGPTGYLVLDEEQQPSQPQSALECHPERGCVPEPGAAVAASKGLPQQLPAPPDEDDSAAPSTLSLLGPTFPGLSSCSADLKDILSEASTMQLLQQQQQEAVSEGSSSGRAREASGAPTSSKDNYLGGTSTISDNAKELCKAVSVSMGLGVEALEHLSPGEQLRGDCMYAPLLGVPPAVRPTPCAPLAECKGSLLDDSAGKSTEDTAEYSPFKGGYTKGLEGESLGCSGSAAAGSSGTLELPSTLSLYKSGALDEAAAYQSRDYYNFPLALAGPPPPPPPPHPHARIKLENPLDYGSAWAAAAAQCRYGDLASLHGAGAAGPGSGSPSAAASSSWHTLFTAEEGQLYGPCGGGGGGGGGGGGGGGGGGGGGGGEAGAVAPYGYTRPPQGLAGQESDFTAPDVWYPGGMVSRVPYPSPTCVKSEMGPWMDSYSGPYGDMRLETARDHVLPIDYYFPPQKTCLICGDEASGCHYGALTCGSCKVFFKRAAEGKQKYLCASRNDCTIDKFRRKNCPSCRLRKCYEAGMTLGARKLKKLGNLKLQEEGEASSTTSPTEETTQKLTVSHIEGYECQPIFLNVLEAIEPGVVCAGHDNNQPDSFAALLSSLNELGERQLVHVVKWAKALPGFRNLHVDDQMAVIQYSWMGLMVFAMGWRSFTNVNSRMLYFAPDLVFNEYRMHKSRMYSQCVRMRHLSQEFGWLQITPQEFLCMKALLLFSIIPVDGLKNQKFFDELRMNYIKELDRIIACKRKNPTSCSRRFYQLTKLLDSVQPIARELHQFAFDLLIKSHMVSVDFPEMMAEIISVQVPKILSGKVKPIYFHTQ
T1 sequence (Q96SW2 whole entry partner): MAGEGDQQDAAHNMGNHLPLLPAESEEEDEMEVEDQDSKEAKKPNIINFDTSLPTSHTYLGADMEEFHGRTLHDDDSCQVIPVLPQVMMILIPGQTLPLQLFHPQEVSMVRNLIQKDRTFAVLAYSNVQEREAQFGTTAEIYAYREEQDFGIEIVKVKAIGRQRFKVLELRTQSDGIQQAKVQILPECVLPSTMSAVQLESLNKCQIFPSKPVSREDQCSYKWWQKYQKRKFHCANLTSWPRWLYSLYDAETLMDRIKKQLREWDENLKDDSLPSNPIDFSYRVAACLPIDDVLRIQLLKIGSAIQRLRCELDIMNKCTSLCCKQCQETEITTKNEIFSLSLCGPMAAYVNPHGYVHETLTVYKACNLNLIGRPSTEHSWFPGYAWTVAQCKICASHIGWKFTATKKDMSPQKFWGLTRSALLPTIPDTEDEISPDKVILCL
T2 sequence (P10275 whole entry L702H/T878A): as the sequence (P10275 whole entry T878A) above, with L702H counted along it
T2 sequence (Q96SW2 whole entry partner): as the sequence (Q96SW2 whole entry partner) above

By DC50 is commonly meant the concentration at which degradation of the target reaches its halfway point. As a reminder, the Dmax is the greatest extent of degradation seen. Turning to `Cc1ccc(N2CCC(c3ccc(N4CCC(CN5CCC(n6ccc7c(N8CCC(=O)NC8=O)cccc76)CC5)CC4)cc3)CC2)c2[nH]cc(C#N)c12` [Example 8, 7-(4-{4-[4-({4-[4-(2,4-Dioxo-1,3-diazinan-1-yl)-1H-indol-1-yl]piperidin-1-yl}methyl)piperidin-1-yl]phenyl}piperidin-1-yl)-4-methyl-1H-indole-3-carbonitrile], the figures for the half-maximal degradation concentration (DC50) in assay [1] and in assay [2] were 29 nM and 103 nM, respectively. The results for the Dmax in assay [1] and in assay [2] (setting [3]) were 99% and 96%, respectively.

Turning to `Cc1ccc(N2CCC(c3ccc(OCCCCN4CCN(c5ccc6c(c5)CN(C5CCC(=O)NC5=O)C6=O)CC4)cc3)C2)c2[nH]cc(C#N)c12` (single isomer, unassigned) [Example 150, 7-{(3S*)-3-[4-(4-{4-[2-(2,6-Dioxopiperidin-3-yl)-1-oxo-2,3-dihydro-1H-isoindol-5-yl]piperazin-1-yl}butoxy)phenyl]pyrrolidin-1-yl}-4-methyl-1H-indole-3-carbonitrile], the DC50 in assay [1] was 14 nM; in assay [2] it was 893 nM. In addition, the Dmax in assay [1] is 82%; in assay [2] (setting [3]) it was 50%.

As to `Cc1ccc(N2CCC(NC(=O)c3ccc(N4CCC(CN5CCN(c6cc7c(cc6F)C(=O)N(C6CCC(=O)NC6=O)C7=O)CC5)CC4)cn3)CC2)c2[nH]cc(C#N)c12` (stereo not drawn) [Example 171, N-[1-(3-Cyano-4-methyl-1H-indol-7-yl)piperidin-4-yl]-5-[4-({4-[2-(2,6-dioxopiperidin-3-yl)-6-fluoro-1,3-dioxo-2,3-dihydro-1H-isoindol-5-yl]piperazin-1-yl}methyl)piperidin-1-yl]pyridine-2-carboxamide], the values for the DC50 in assay [1] and in assay [2] were 5 nM and 36 nM, respectively. Also, the figures for the Dmax in assay [1] and in assay [2] (setting [3]) were 96% and 85%, respectively.

For `N#Cc1c[nH]c2c(N3CCC(c4ccc(N5CC6(CCC(CN7CCC(n8ccc9c(N%10CCC(=O)NC%10=O)cccc98)CC7)CC6)C5)cc4)CC3)ccc(Cl)c12` [Example 142, 4-Chloro-7-(4-{4-[7-({4-[4-(2,4-dioxo-1,3-diazinan-1-yl)-1H-indol-1-yl]piperidin-1-yl}methyl)-2-azaspiro[3.5]nonan-2-yl]phenyl}piperidin-1-yl)-1H-indole-3-carbonitrile], the DC50 came to 25 nM in assay [1] and 45 nM in assay [2]. Besides, the Dmax in assay [1] came out at 106%; in assay [2] (setting [3]), 109%.

On to `N#Cc1c[nH]c2c(N3CCC(c4ccc(N5CCC(CN6CCN(c7ccc(C(=O)NC8CCC(=O)NC8=O)c(F)c7)CC6)CC5)cc4)CC3)ccc(Cl)c12` (stereo not drawn) [Example 106, 4-{4-[(1-{4-[1-(4-Chloro-3-cyano-1H-indol-7-yl)piperidin-4-yl]phenyl}piperidin-4-yl)methyl]piperazin-1-yl}-N-(2,6-dioxopiperidin-3-yl)-2-fluorobenzamide], for which the DC50 in assay [1] stood at 22 nM; in assay [2], 50 nM. The results for the Dmax in assay [1] and in assay [2] (setting [3]) were 97% and 93%, respectively.

As for `N#Cc1c[nH]c2c(N3CCC(c4cnc(N5CCC(CN6CCC(n7ccc8c(N9CCC(=O)NC9=O)cccc87)CC6)CC5)nc4)CC3)ccc(Cl)c12` [Example 125, 4-Chloro-7-(4-{2-[4-({4-[4-(2,4-dioxo-1,3-diazinan-1-yl)-1H-indol-1-yl]piperidin-1-yl}methyl)piperidin-1-yl]pyrimidin-5-yl}piperidin-1-yl)-1H-indole-3-carbonitrile], the DC50 in assay [1] came to 4 nM; in assay [2] it was 9 nM. In addition, the figures for the Dmax in assay [1] and in assay [2] (setting [3]) were 102% and 93%, respectively.

On to `N#Cc1c[nH]c2c(N3CCC(c4ccc(N5CCC(CN6CCC(n7ccc8cc(N9CCC(=O)NC9=O)ccc87)CC6)CC5)cc4)CC3)ccc(Cl)c12` [Example 90, 4-Chloro-7-(4-{4-[4-({4-[5-(2,4-dioxo-1,3-diazinan-1-yl)-1H-indol-1-yl]piperidin-1-yl}methyl)piperidin-1-yl]phenyl}piperidin-1-yl)-1H-indole-3-carbonitrile], for which the DC50 turned out to be 281 nM in assay [1] and 164 nM in assay [2]. Moreover, the Dmax in assay [1] turned out to be 87%; in assay [2] (setting [3]), 101%.

`N#Cc1c[nH]c2c(N3CCC(c4ccc(N5CCC(CN6CCC(n7ccc8c(N9CCC(=O)NC9=O)cccc87)CC6)CC5)cc4)CC3)ccc(F)c12` [Example 6, 7-(4-{4-[4-({4-[4-(2,4-Dioxo-1,3-diazinan-1-yl)-1H-indol-1-yl]piperidin-1-yl}methyl)piperidin-1-yl]phenyl}piperidin-1-yl)-4-fluoro-1H-indole-3-carbonitrile]: the DC50 in assay [1] was found to be 10 nM; in assay [2], 13 nM. Besides, the figures for the Dmax in assay [1] and in assay [2] (setting [3]) were 100% and 103%, respectively.

Regarding `N#Cc1c[nH]c2c(N3CCCC(c4ccc(N5CCC(CN6CCC(n7ccc8c(N9CCC(=O)NC9=O)cccc87)CC6)CC5)cn4)C3)ccc(Cl)c12` (single isomer, unassigned) [Example 66, 4-Chloro-7-[(3S*)-3-{5-[4-({4-[4-(2,4-dioxo-1,3-diazinan-1-yl)-1H-indol-1-yl]piperidin-1-yl}methyl)piperidin-1-yl]pyridin-2-yl}piperidin-1-yl]-1H-indole-3-carbonitrile], the DC50 in assay [1] came to 10 nM; in assay [2], 22 nM. In addition, in assay [1], the “LNCaP AR Degradation Dmax” value is reported as 97%. Besides, the “LNCaP AR (L702H) Degradation Dmax” value in assay [2] (setting [3]) is given as 94%.

On to `N#Cc1c[nH]c2c(N3CCC(c4cnc(N5CCC(CN6CCN(c7ccc8c(c7)CN(C7CCC(=O)NC7=O)C8=O)CC6)CC5)cn4)CC3)ccc(Cl)c12` (stereo not drawn) [Example 68, 4-Chloro-7-(4-{5-[4-({4-[2-(2,6-dioxopiperidin-3-yl)-1-oxo-2,3-dihydro-1H-isoindol-5-yl]piperazin-1-yl}methyl)piperidin-1-yl]pyrazin-2-yl}piperidin-1-yl)-1H-indole-3-carbonitrile], for which the DC50 in assay [1] was determined as 6 nM; in assay [2], 21 nM. For the same compound, the Dmax in assay [1] stood at 97%; in assay [2] (setting [3]), 84%.

With `N#Cc1c[nH]c2c(N3CCC[C@@H](c4ccc(N5CC6(CCC(CN7CCN(c8ccc9c(c8)CN(C8CCC(=O)NC8=O)C9=O)CC7)CC6)C5)cc4)C3)ccc(Cl)c12` (stereo partly drawn) [Example 130, 4-Chloro-7-[(3S)-3-{4-[7-({4-[2-(2,6-dioxopiperidin-3-yl)-1-oxo-2,3-dihydro-1H-isoindol-5-yl]piperazin-1-yl}methyl)-2-azaspiro[3.5]nonan-2-yl]phenyl}piperidin-1-yl]-1H-indole-3-carbonitrile], the DC50 in assay [1] worked out at 31 nM; in assay [2], 42 nM. For the same compound, the figures for the Dmax in assay [1] and in assay [2] (setting [3]) were 99% and 78%, respectively.

As to `Cc1ccc(C2CCCN(c3ccc(N4CCC(CN5CCN(c6ccc7c(c6)CN(C6CCC(=O)NC6=O)C7=O)CC5)CC4)cc3)C2)c2[nH]cc(C#N)c12` (single isomer, unassigned) [Example 83, 7-[(3S*)-1-{4-[4-({4-[2-(2,6-dioxopiperidin-3-yl)-1-oxo-2,3-dihydro-1H-isoindol-5-yl]piperazin-1-yl}methyl)piperidin-1-yl]phenyl}piperidin-3-yl]-4-methyl-1H-indole-3-carbonitrile], the DC50 in assay [1] is 3100 nM; in assay [2], over 3000 nM. In addition, in assay [1], the “LNCaP AR Degradation Dmax” value is 100%.

Turning to `N#Cc1c[nH]c2c(N3CCC[C@@H](c4ccc(N5CCC(CN6CCC(n7ccc8c(N9CCC(=O)NC9=O)cccc87)CC6)CC5)cc4)C3)ccc(Cl)c12` [Example 11], the DC50 in assay [1] was found to be 9 nM; in assay [2], 18 nM. Besides, the Dmax in assay [1] worked out at 102%; in assay [2] (setting [3]), 105%.

Source of the values: patent US20260274832A1, “COMPOUNDS AND THEIR USE IN TREATING CANCER” (ASTRAZENECA AB, priority 2023, published 2026).
